Source: ChEMBL document CHEMBL4311946, “Mechanistic Insight on the Mode of Action of Colletoic Acid” (J Med Chem, 2019)
Active and inactive are the calls of the source. The rule behind the calls is not given here.

Legend:
[1] = target: 11-beta-hydroxysteroid dehydrogenase 1 (Homo sapiens, UniProt P28845, C272S); assay: Inhibition of N-terminal MKHQHQHQHQHQHQQPL-tagged 11beta-HSD1 C272S mutant (unknown origin) expressed in Escherichia coli BL21 (DE3) using cortisol as substrate measured for 1 hr in presence of NADPH by fluorescence assay
11-beta-hydroxysteroid dehydrogenase 1, sequence (P28845 whole entry C272S): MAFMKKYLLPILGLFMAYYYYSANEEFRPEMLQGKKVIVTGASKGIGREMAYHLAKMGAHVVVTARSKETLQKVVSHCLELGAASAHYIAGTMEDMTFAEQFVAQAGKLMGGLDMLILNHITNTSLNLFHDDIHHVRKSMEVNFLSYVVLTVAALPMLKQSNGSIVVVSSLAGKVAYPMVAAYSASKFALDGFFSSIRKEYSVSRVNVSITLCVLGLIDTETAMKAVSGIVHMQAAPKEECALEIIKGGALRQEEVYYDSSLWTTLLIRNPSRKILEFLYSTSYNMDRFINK

3T3-L1 [2] = assay: Cytotoxicity against mouse 3T3L1 cells measured after 72 hrs by celltiter-glo luminescent cell viability assay; assay type: ADME, cell-based; settings: 3T3-L1, 72 h
[3] = target: T1, 11-beta-hydroxysteroid dehydrogenase type 2 (Homo sapiens, UniProt P80365); assay: Inhibition of 11beta-HSD2 (unknown origin) expressed in HEK293 cells using cortisone as substrate measured after 2 hrs in presence of NAD+ by HTRF assay; assay type: ADME, cell-based
T1 sequence (P80365 whole entry): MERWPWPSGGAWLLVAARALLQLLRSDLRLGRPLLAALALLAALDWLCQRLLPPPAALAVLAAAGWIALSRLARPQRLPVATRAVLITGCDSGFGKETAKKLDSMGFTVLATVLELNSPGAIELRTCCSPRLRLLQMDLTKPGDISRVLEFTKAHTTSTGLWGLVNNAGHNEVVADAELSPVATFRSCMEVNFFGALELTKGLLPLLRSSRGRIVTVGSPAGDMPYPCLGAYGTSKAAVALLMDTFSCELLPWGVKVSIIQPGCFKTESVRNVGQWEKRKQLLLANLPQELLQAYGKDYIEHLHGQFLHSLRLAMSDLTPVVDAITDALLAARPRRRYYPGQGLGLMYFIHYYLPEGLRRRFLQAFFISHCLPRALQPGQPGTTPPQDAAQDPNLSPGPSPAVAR

[4] = target: T2, Peroxisome proliferator-activated receptor gamma (Homo sapiens, UniProt P37231); assay: Antagonist activity at human PPARgamma expressed in 293H cells assessed as reduction in rosiglitazone-induced transcriptional response preincubated for 30 mins followed by rosiglitazone addition and measured after 16 hrs by reporter gene-based FRET assay; assay type: cell-based
T2 sequence (P37231 whole entry): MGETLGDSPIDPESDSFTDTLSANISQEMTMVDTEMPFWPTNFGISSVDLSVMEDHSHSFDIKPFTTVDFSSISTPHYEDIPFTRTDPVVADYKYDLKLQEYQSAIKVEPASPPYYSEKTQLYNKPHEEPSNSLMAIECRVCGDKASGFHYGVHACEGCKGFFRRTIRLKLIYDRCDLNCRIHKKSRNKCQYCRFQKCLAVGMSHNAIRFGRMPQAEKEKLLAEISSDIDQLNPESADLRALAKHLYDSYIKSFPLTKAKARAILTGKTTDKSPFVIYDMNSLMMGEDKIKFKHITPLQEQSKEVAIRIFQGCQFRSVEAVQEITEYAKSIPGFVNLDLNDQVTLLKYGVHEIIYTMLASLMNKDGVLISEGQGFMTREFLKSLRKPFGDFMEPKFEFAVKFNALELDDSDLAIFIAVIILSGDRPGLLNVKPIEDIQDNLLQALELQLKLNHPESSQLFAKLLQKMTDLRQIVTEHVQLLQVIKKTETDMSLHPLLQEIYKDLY

[5] = Half life in simulated gastric fluid; assay type: ADME
[6] = Half life in mouse liver microsomes; assay type: ADME, Microsome
[7] = Half life in human liver microsomes; assay type: ADME, Microsome
[8] = Stability in mouse plasma; assay type: ADME, cell-free
[9] = Half life in human plasma; assay type: ADME, cell-free
3T3-L1 [10] = assay: Inhibition of cell differentiation in mouse 3T3L1 cells assessed as reduction in pre-adipocyte differentiation into matured adipocytes at 50 uM incubated for 48 hrs under induction medium containing dehydrocorticosterone/cortisone followed by shifting to differentiation medium and measured after 7 days by Oil red O staining-based microscopic analysis; assay type: functional

SMILES | IC50 [1] | EC50 (3T3-L1 [2]) | IC50 [3] | EC50 [4] | half-life [5] | Ki [1] | t1/2 [6] | t1/2 [7] | Stability [8] | half-life [9] | inhibition (3T3-L1 [10])
CC(=O)O[C@H]1C[C@]2(CC=C1C)[C@@H](C(=O)O)CC[C@H]2C(C)C | 178 µM | > 500 µM | > 500 µM |  |  |  |  |  |  |  | 
O=C(Nc1ccccc1)c1cc([N+](=O)[O-])ccc1Cl |  |  |  | 0.002 µM |  |  |  |  |  |  | 
C=C1CC[C@]2(C[C@@H]1O)[C@H](C)CC[C@@H]2C(=O)O | 162 µM | > 500 µM | > 500 µM |  |  |  |  |  |  |  | 
CC1=CC[C@@]2(CC1=O)[C@@H](C(=O)O)CC[C@H]2C(C)C | 42.4 µM | > 500 µM | > 500 µM |  | > 6 h | 5.15 µM | 2.23 h | 6.8 h | Stable | > 48 h | 
COC(=O)[C@H]1CC[C@@H](C(C)C)[C@@]12CC=C(C)[C@@H](O)C2 | > 500 µM | > 500 µM | > 500 µM |  |  | > 500 µM |  |  |  |  | 
C[C@]1(O)CC[C@@]2(C[C@@H]1O)[C@@H](C(=O)O)CC[C@H]2C1CCCCC1 | 379 µM | > 500 µM | > 500 µM |  |  | 57.6 µM |  |  |  |  | 
CC1=CC[C@@]2(C[C@@H]1O)[C@@H](C(=O)O)CC[C@H]2C1CCCCC1 | 1.34 µM | > 500 µM | > 500 µM |  | > 6 h | 0.21 µM | 0.13 h | 0.3 h | Stable | > 48 h | Active
C=C1CC[C@@]2(C[C@@H]1O)[C@@H](C(=O)O)CC[C@H]2C(C)C | 38.3 µM | > 500 µM | > 500 µM |  |  |  |  |  |  |  | 
CC1=CC[C@@]2(C[C@H]1O)[C@@H](C(C)C)CC[C@H]2C(=O)O | 80.3 µM | > 500 µM | > 500 µM |  |  |  |  |  |  |  | 
CC1=CC[C@@]2(C=C1)[C@@H](C(=O)O)CC[C@H]2C1CCCCC1 | 2.2 µM | > 300 µM | > 500 µM |  | > 6 h |  | 0.27 h | 0.93 h | Stable | > 48 h | Active
CC1=CC[C@@]2(C[C@@H]1O)[C@@H](C(N)=O)CC[C@H]2C(C)C | > 500 µM | > 500 µM | > 500 µM |  |  | > 500 µM |  |  |  |  | 
CC(=O)O[C@@H]1C[C@@](C)(O)CC[C@]12[C@@H](C(=O)O)CC[C@H]2C(C)C | > 500 µM | > 500 µM | > 500 µM |  |  | 289 µM |  |  |  |  | 
CC1(C)[C@@H](OC(=O)CCC(=O)O)CC[C@]2(C)[C@H]3C(=O)C=C4[C@@H]5C[C@@](C)(C(=O)O)CC[C@]5(C)CC[C@@]4(C)[C@]3(C)CC[C@@H]12 [CARBENOXOLONE] |  | > 500 µM |  |  |  |  |  |  |  |  | 
C=C1CC[C@@]2(C[C@@H]1OC(C)=O)[C@@H](C(=O)O)CC[C@H]2C(C)C | 71 µM | > 500 µM | > 500 µM |  |  |  |  |  |  |  | 
CC1=CC[C@@]2(C[C@@H]1O)[C@H](C(=O)O)CC[C@H]2C(C)C | > 500 µM | > 500 µM | > 500 µM |  |  |  |  |  |  |  | 
CC1=CC[C@@]2([C@H](O)C1)[C@@H](C(=O)O)CC[C@H]2C(C)C | 55.1 µM | > 500 µM | > 500 µM |  |  | 8.23 µM |  |  |  |  | 
C=C1CC[C@@]2(C(OC)[C@@H]1O)[C@@H](C(=O)O)CC[C@H]2C(C)C (stereo not given in full) | > 500 µM | > 500 µM | > 500 µM |  |  | 145 µM |  |  |  |  | 
CC1=CC[C@@]2([C@H](O)C1)[C@@H](C(=O)O)CC[C@H]2C1CCCCC1 | 27.2 µM | > 500 µM | > 500 µM |  | > 6 h | 4.63 µM | 0.3 h | 1.29 h | Stable | > 48 h | 
CC(C)[C@@H]1CC[C@H](C(=O)O)[C@]12C[C@@H](O)[C@@](C)(O)[C@@H](O)C2 | > 500 µM | > 500 µM | > 500 µM |  |  | 130 µM |  |  |  |  | 
